Data set [1] deals with K562. The experiment in a line: Antiproliferative activity against human K562 cells assessed as inhibition of cell growth incubated for 48 hrs by SRB assay. The format is functional, cell-based. Conditions: K562, 48 h. A general note: Sulforhodamine B stains cellular protein and so reports cell mass.
Data set [2] has as its system U-251. The experiment in a line: Antiproliferative activity against human U-251 cells assessed as inhibition of cell growth incubated for 48 hrs by SRB assay. The format is functional, cell-based. Conditions: U-251, 48 h.
Data set [3] concerns SK-LU-1. The experiment in a line: Antiproliferative activity against human SK-LU-1 cells assessed as inhibition of cell growth incubated for 48 hrs by SRB assay. The format is functional, cell-based. The settings on record: SK-LU-1, 48 h.
The test system of data set [4] is SK-LU-1. The experiment in a line: Antiproliferative activity against human SK-LU-1 cells assessed as inhibition of cell growth at 10 uM incubated for 48 hrs by SRB assay relative to control. More on the design: scale not given: the % may be the effect or the level left. The format is functional.
Data set [5] in a line: Antiproliferative activity against African green monkey COS-7 cells assessed as inhibition of cell growth at 10 uM incubated for 48 hrs by SRB assay relative to control. The format is toxicity, cell-based. The settings on record: chlorocebus aethiops, read-out: Activity.
The test system of data set [6] is U-251. The experiment in a line: Antiproliferative activity against human U-251 cells assessed as inhibition of cell growth at 10 uM incubated for 48 hrs by SRB assay relative to control. The class given is functional. More on the design: scale not given: the % may be the effect or the level left.
Data set [7] relates to HCT-15. The data set is described as follows: Antiproliferative activity against human HCT-15 cells assessed as inhibition of cell growth at 10 uM incubated for 48 hrs by SRB assay relative to control. The format is functional. Set-up: scale not given: the % may be the effect or the level left.
The subject of data set [8] is MCF7. The experiment in a line: Antiproliferative activity against human MCF7 cells assessed as inhibition of cell growth at 10 uM incubated for 48 hrs by SRB assay relative to control. The class given is functional. Set-up: scale not given: the % may be the effect or the level left.
Data set [9] has as its system K562. The data set is described as follows: Antiproliferative activity against human K562 cells assessed as inhibition of cell growth at 10 uM incubated for 48 hrs by SRB assay relative to control. The class given is functional. More on the design: scale not given: the % may be the effect or the level left.
The test system of data set [10] is PC-3. The data set is described as follows: Antiproliferative activity against human PC-3 cells assessed as inhibition of cell growth at 10 uM incubated for 48 hrs by SRB assay relative to control. The class given is functional. More on the design: scale not given: the % may be the effect or the level left.

SMILES strings stand for the structures. pIC50: −log10 of the molar value.

In the case of `COc1cc([C@@H]2c3cc4c(cc3[C@@H](O[C@@H]3O[C@@H]5CO[C@@H](C)O[C@H]5[C@H](O)[C@H]3O)[C@H]3COC(=O)[C@H]23)OCO4)cc(OC)c1O` [ETOPOSIDE], the negative-log IC50 (pIC50) (commonly the IC50 on a negative log10 scale, so that one unit is a factor of ten) in data set [1] is 4.95.

On to `CCCCCCCCCCCCNC(=O)CN1CCCCN(CC(=O)NC(C)(C)C)C(=O)c2cccc(c2)-c2cccc(c2)C1=O`, for which the results for the pIC50 in data set [2], in data set [3] and in data set [1] were 5.23, 5.12 and 5.40, respectively.

In the case of `CCCCCCCNC(=O)CN1CCCCN(CC(=O)NC(C)(C)C)C(=O)c2cccc(c2)-c2cccc(c2)C1=O`, the Activity is 88.6% in data set [4]; 99.2% in [6]; 77.9% in data set [7]; 70.9% in [8]; 79.3% in [9]; 97.2% in [10]. In addition, the inhibition at 48 h, 10 µM in data set [5] stood at 7.6%. Further, the negative logarithm of the IC50 (pIC50) in [3] is 5.33; in [1] it was 5.09.

For the molecule `CCCCCCCCCCCCNC(=O)C(c1ccc(SC)cc1)N1CCCCN(CC(=O)NC(C)(C)C)C(=O)c2cccc(c2)-c2cccc(c2)C1=O` (racemic), the Activity is recorded as 45.6% in data set [4]; 20% in data set [6]; 18.3% in [7]; 45% in data set [8]; 34.9% in data set [9]; 28.5% in data set [10]. Besides, the inhibition at 48 h, 10 µM in data set [5] was found to be 35.5%.

Source of the values: ChEMBL document CHEMBL5143595, “Expanding the structure-activity relationship of cytotoxic diphenyl macrocycles” (Bioorg Med Chem Lett, 2022).
